Strand notation (5' to 3'): a small letter for the sugar, then the base; units joined by * are phosphorothioate-linked, units joined directly phosphodiester-linked; [ ] holds rarer units or linkages, { } end groups; capitals alone tell only the bases. d = 2'-deoxy (DNA)
Assays:
Format in all cases: in vivo, rat
rats with SNI [1] = assay: Mechanical allodynia in rats with spared nerve injury (SNI); settings: single dose of 6 mg/kg seven days after SNI, s.c.
From the text: (§1) In twenty-six rats anesthetized with Isoflurane (5% induction, 2.5% maintenance, 0.8 L/min O2 flow rate; Piramal Healthcare, UK), the right sciatic nerve and its three distal branches were exposed by blunt dissection, and the tibial and common peronneal branches completely sectioned and ligated to prevent regeneration. The third branch, the sural nerve, was left intact. The animals received one single injection of ketoprofen for post-surgical pain control and were left to recover from anesthesia in a warm and quiet environment before relocating them in their corresponding cages.
(§2) Rats were administered subcutaneously using the LT protocol (FIG. 4A) and a single dose of 6 mg/kg of IMT504. This was followed by pain-like behavior testing for up to six weeks after SNI.
Naïve (uninjured and untreated; n=16), CFA injured untreated (n=10), and vehicle-treated CFA (n=9) or SNI rats (n=10) were used as controls. Eight naïve rats remained untreated, four were vehicle-treated, and four received a daily dose of 20 mg/kg IMT504 for five consecutive days. Untreated CFA rats received an intradermal hind paw injection of CFA and no further treatment. Vehicle-treated CFA rats received five daily subcutaneous injections of saline (200 μl), starting seven days after injury. Vehicle-treated SNI rats received one single dose of saline (200 ul), starting seven days after injury. […]

rats with SNI [2] = assay: Cold allodynia in rats with spared nerve injury (SNI); settings: single dose of 6 mg/kg seven days after SNI, s.c.
From the text: as §1, §2
Naïve (uninjured and untreated; n=16), CFA injured untreated (n=10), and vehicle-treated CFA (n=9) or SNI rats (n=10) were used as controls. Eight naïve rats remained untreated, four were vehicle-treated, and four received a daily dose of 20 mg/kg IMT504 for five consecutive days. Untreated CFA rats received an intradermal hind paw injection of CFA and no further treatment. […]
For cold allodynia assessment, the reaction to the application of a drop of acetone onto the plantar surface of the hind paw was used. Both frequency of withdrawal and cold score (pain-like behavior intensity) were measured.

[3] = system: rats with post-incisional pain; assay: Mechanical allodynia in rats with post-incisional pain (plantar incision); settings: 6 mg/kg s.c. 48 h and 24 h before incision
From the text: In twenty-four rats anesthetized with Isoflurane (5% induction, 2.5% maintenance, 0.8 L/min O2 flow rate; Scott-Cassara, Argentina), the right hind paw plantar skin was cleaned and disinfected. This was followed by a 1-cm longitudinal incision distal to heel and extending towards the toes, as previously described (Xu J, et al., 2011, 24(5): 508-514). The incision involved both plantar skin and fascia. This was followed by identification and longitudinal incision of plantar […] muscle, leaving its insertions intact. After achieving homeostasica, skin was sutured using a 5-0 nylon suture, protected with an antibacterial cream and the animal was returned to its retention cage, under observation, until full recovery from anesthesia.
Rats were subcutaneously administered 6 mg/kg of IMT504, 48 and 24 h before implementing the post-incisional pain model. This was followed by pain-like behavior testing for up to 21 days after injury.
For mechanical allodynia assessment, a set of von Frey filaments (Stoelting, Ill., USA) and the modified up-down method of Dixon were used, to establish the 50% withdrawal threshold. A withdrawal threshold of 0.21 oz or less was considered an allodynic response.

[4] = system: rats with postsurgical pain (plantar incision); assay: Opioid sparing: morphine in VEH- or IMT504-pre-treated rats with plantar incision, mechanical withdrawal threshold
Method: In all experiments, the oligodeoxynucleotide (ODN) IMT504, with sequence 5′-[…]-3′ (SEQ ID No 1) was used. The HPLC-grade phosphorothioate ODN (Biosynthesis Inc., Lewisville, Tex., USA) was suspended in sterile saline solution (VEH, 0.9% NaCl; 20 mg/ml; storage concentration) and assayed for LPS contamination. Working concentration doses (6 mg/kg) were obtained by additional dissolving in sterile VEH. The ODN was administered subcutaneously, at a final volume of 200-300 μl, depending on animal weight.
Experiments addressing the opioid sparing effects of IMT504 included the subcutaneous (s.c.) injection of morphine hydrochloride trihydrate (Neocalmans, 10 mg/ml, Soubeiran Chobet, Buenos Aires, Argentina) at three different concentrations (1, 3 or 10 mg/kg, dissolved in sterile distilled water).
The rat hind paw plantar incision model of postoperative pain was used as previously described [Brennan, T. J., E. P. Vandermeulen, and G. F. Gebhart, Characterization of a rat model of incisional pain. Pain, 1996. 64(3): p. 493-501. Briefly, rats were anesthetized using isoflurane (5% induction, 2.5% maintenance, 0.8 l/min O2 flow rate; Piramal Healthcare, UK) and the plantar aspect of the right hind paw was disinfected with povidone iodine. A 1.0-cm longitudinal incision was made 0.5 cm from the end of the heel. The underlying flexor muscle was also incised longitudinally, allowing the muscle origin and insertion to remain intact. After hemostasis by gentle pressure, the skin was closed with sutures of 5-0 nylon.
Rats were divided into injured rats receiving IMT504 (6 mg/kg, dissolved in VEH) or VEH alone, 48h and 24 h prior to surgery. These groups were further subdivided into: 1) Rats followed during 3 days after the injury (n=6 per group), for assessment of pain-like behavior after the co-administration of morphine dissolved in injectable water (vehicle) at different doses, 6 and 24 h after injury; 2) Rats followed during 3 days after the injury (n=6 per group), for assessment of pain-like behavior after the co-administration of injectable water (vehicle) alone, 6 and 24 h after injury; 3) Rats followed during 21 days (n=8), for analysis of the administration of naloxone, 3 days after injury.
Mechanical withdrawal thresholds were assessed by using von Frey nylon monofilaments of different bending forces (1.4, 2, 6, 8, 10, 15 and 26 g; Stoelting Inc., Wooddale, USA) and the modified up-down method of Dixon, as described by Chaplan and cols. (Chaplan, S. R., et al., Quantitative assessment of tactile allodynia in the rat paw. J Neurosci Methods, 1994. 53(1): p. 55-63) , to establish the 50% withdrawal threshold. Results were obtained using the formula: 50% g threshold=[…], where Xf=value (in log units) of the final von Frey hair used; k=tabular value for the pattern of positive/negative responses; and […] difference (in log units) between stimuli. Mechanical withdrawal thresholds were tested 48 h before surgery (basal responses), and 6 h, 1, 3, 7, 14 and 21 days after injury.
A dose-response experiment to evaluate the effect of the s.c. administration of morphine at different doses (10, 3 and 1 mg/kg), 6 h or 1 day after injury, in VEH- or IMT504-treated rats (time-points were chosen based on the fact that a certain degree of mechanical withdrawal threshold alterations was still present in IMT504-treated rats was done, which allowed to test if within this therapeutic window, it was possible to fully revert pain-like behavior using smaller morphine doses). […]

IMT504: synthetic phosphorothioate oligodeoxynucleotide with sequence 5′-TCATCATTTTGTCATTTTGTCATT-3′ (SEQ ID No 1) (DNA dT*dC*dA*dT*dC*dA*dT*dT*dT*dT*dG*dT*dC*dA*dT*dT*dT*dT*dG*dT*dC*dA*dT*dT)
full recovery of mechanical withdrawal thresholds (rats with SNI [1]): fully recovered from week three and onwards | time from which mechanical withdrawal thresholds are almost at basal levels (rats with SNI [1]): 12 days after injury | cold score (rats with SNI [2]): reduced to basal levels ten days after injury and onwards | cold withdrawal frequency reduced to basal levels (rats with SNI [2]): three weeks after injury | day after injury from which basal withdrawal thresholds are shown [3]: 3 days | mechanical withdrawal thresholds and responses to cold stimuli in contralateral hind paws ([3]; data not shown): remained normal | reduction of mechanical withdrawal thresholds at 6 h and 1 day after injury ([3]; vs vehicle): lower reduction of withdrawal thresholds | anti-allodynic effect of pre-emptive IMT504 and 3 mg/kg morphine ([4]; 6 h and 1 day after injury challenges): anti-allodynic effects directly comparable to those described for the 10 mg/kg dose in VEH rats | time post injection of morphine with withdrawal thresholds remaining significantly higher ([4]; IMT504-pre-treated rats (6 mg/kg, 48 h and 24 h before surgery), particularly at morphine 3 and 10 mg/kg): ≥ 120 min | withdrawal threshold once the effect of the opioid had worn out (240 min) ([4]; IMT504 rats receiving 10 mg/kg morphine, 1 day after injury, vs VEH counterparts): retained a significantly higher withdrawal threshold than their VEH counterparts | reduction in morphine concentration to achieve the same effect as in VEH-treated injured rats receiving the highest dose ([4]; area under the curve analyses (FIG. 16, FIG. 17)): 3 fold
